4 compounds from patent publication US5011838A, “Pharmacologically active 2-substituted 3-(2-ethoxyethyl) imidazo[4,5-b]pyridines and pharmaceutical compositions containing them” (Dompe Farmaceutici S.p.A., priority 1989, dated 1991) can be followed below.

In data set [1] the test system is mortality induced by compound 48/80. The data set is described as follows: Mortality inhibition by compound 48/80. The class given is in vivo, Sprague Dawley Nos male rats. The conditions noted are these: ip, half an hour before 2 mg/kg i.v. compound 48/80; rat; 4 hours observation. On the procedure:
For evaluating the protection to the mortality induced by compound 48/80 administration the method described by C. J. E. Niemegeers et al. (Arch. Int. Pharmacodyn, 234,164,1978) was followed.
Sprague Dawley Nos male rats (Nossan, Correzzana, Milano) weighing 140 to 150 g, divided into groups of 10 animals each, on an empty stomach for 24 hours with water "ad libitum", were kept in cages with a grid floor, and treated intravenously with 2 mg/kg of compound 48/80 (1 ml/rat).
The animals were kept under observation for 4 hours taking note of their mortality. The results were expressed as the number of animals dead with respect to the number of treated animals. Compounds under examination or the carrier were administered half an hour before administration of compound 48/80 by intraperitoneal route, dissolved in H2 O (5 ml/kg). The experimental data were submitted to the variance analysis and to subsequent multiple comparisons according to Dunnet (D. J. Finney, in "Statistical Methods in Biological assay", Ed. L. Griffin and Co. Ltd., pag. 152,1957, Edition Ames Iowa, 1971).

Data set [2] can be described thus: Evaluation of the lethal dose50 (LD50), acute toxicity. As to conditions: in vivo, ip; mouse; 14 days observation. As to the method:
Swiss Nos (Nossan, Correzzana, Milano) mice, weighing 18 to 20 g each, on an empty stomach for 18 hours with water "ad libitum" and kept in cages with grid floor, were used. The animals, divided into groups of 10 animals each, (5M+5F) were treated intraperitoneally (10 ml/kg) with the compounds under examination dissolved in water or suspended in 0.5% carboxymethylcellulose. The animals were kept in the cages and the mortality occurred within the following 6 hours was noted down. At the expiring of the 6 hours the animals were allowed to eat up to the end of the experimentation which lasted 14 days. During this period all the toxic symptoms and the mortality occuring were noted.
The animals which died during the test period and those which were sacrificed at the end of the same, underwent autopsy for a macroscopic examination of their main organs. The experimental data were statistically compared with the X^2 method and LD50 was extrapolated by the `probit` method.

Data set [3] deals with mortality induced by histamine. The data set is described as follows: Effect on the mortality induced by histamine. The class given is in vivo, male albino guinea pigs (Dunkin-Hartley). As to conditions: Cavia porcellus, po, 1 h; p.o., 60 min before 1.25 mg/kg i.v. histamine dihydrochloride; guinea pig; read-out: Mortality induced by hystamine ED50 p.o. On the procedure: The method described by Romer D. et al. (Med. Welt. 17,791, 1966) was followed and the tests were carried out on male albino guinea pigs (Dunkin-Hartley), weighing 350 to 450 g which were kept in cages with a grid floor, on an empty stomach for 24 hours with water ad libitum. The compounds under examination have been orally administered to the animals, dissolved in 0.5% carboxymethylcellulose, 60 minutes before intravenous administration of 1.25 mg/kg of histamine dihydrochloride in saline solution. In the control animals, treated with carboxymethylcellulose, the intravenous administration of histamine dihydrochloride induced a 100% mortality.
It has been evaluated ED50, which corresponds to the amount of the compound able to inhibit to 50% the mortality induced by histamine: estimation of ED50 has been made applying the `probit` method (Finney D. J. "Statistical method in biological assay", pg 512,1957).

As for `CCOCCn1c(CCCN(C)C)nc2cccnc21` [Example 1, 3-(2-Ethoxyethyl)-2-(3-dimethylaminopropyl)-3H-imidazo [4,5-b] pyridine], the ED50 (commonly the midpoint of the dose-response relation) in data set [1] is 0.5 mg/kg; in data set [3], 0.03 mg/kg. Besides, the LD50 – broadly, the dose expected to kill half of the subjects tested – at 336 h in data set [2] was above 100 mg/kg.

Take `CC(C)(C)c1ccc(C(O)CCCN2CCC(C(O)(c3ccccc3)c3ccccc3)CC2)cc1` (stereo not drawn) [Terfenadine, reference compound]: the ED50 came out at 1.09 mg/kg in data set [1] and 0.436 mg/kg in data set [3]. The LD50 at 336 h in data set [2] came to 620 mg/kg.

As for `CCOCCn1c(CCCN2CCOCC2)nc2cccnc21.O=C(O)/C=C/C(=O)O.O=C(O)/C=C/C(=O)O` [Example 9, 3-(2-Ethoxyethyl)-2-[3-(morpholin-4-yl)propyl]-3H-imidazo [4,5-b] pyridine difumarate], the figures for the ED50 in data set [1] and in data set [3] were 0.5 mg/kg and 0.003 mg/kg, respectively. This compound came in with an LD50 at 336 h in data set [2] above 100 mg/kg.

In the case of `CCOCCn1c(CCN(C)C)nc2cccnc21` [Example 2, 3-(2-Ethoxyethyl)-2-(2-dimethylaminoethyl)-3 H-imidazo [4,5-b] pyridine], the ED50 in data set [1] was determined as 0.3 mg/kg; in data set [3] it was 0.025 mg/kg. For the same compound, the LD50 at 336 h in data set [2] is above 100 mg/kg.
